Measured values taken from ChEMBL document CHEMBL1155760, “Quinoline alkaloids and other constituents of Melicope semecarpifolia with antiplatelet aggregation activity” (2001).

Key:
Conditions in all cases: Oryctolagus cuniculus
[1] = Antiplatelet activity against washed rabbit platelet assessed as arachidonic acid-induced platelet aggregation at 50 ug/mL preincubated 3 mins before arachidonic acid challenge by turbidimetric method
[2] = Antiplatelet activity against washed rabbit platelet assessed as collagen-induced platelet aggregation at 100 ug/mL pre-incubated 3 mins before collagen challenge by turbidimetric method
[3] = Antiplatelet activity against washed rabbit platelet assessed as thrombin-induced platelet aggregation at 100 ug/mL pre-incubated 3 mins before thrombin challenge by turbidimetric method
[4] = Antiplatelet activity against washed rabbit platelet assessed as arachidonic acid-induced platelet aggregation at 100 ug/mL pre-incubated 3 mins before arachidonic acid challenge by turbidimetric method
[5] = Antiplatelet activity against washed rabbit platelet assessed as collagen-induced platelet aggregation at 50 ug/mL pre-incubated 3 mins before collagen challenge by turbidimetric method
[6] = Antiplatelet activity against washed rabbit platelet assessed as platelet activating factor-induced platelet aggregation at 100 ug/mL pre-incubated 3 mins before PAF challenge by turbidimetric method
[7] = Antiplatelet activity against washed rabbit platelet assessed as collagen-induced platelet aggregation at 20 ug/mL pre-incubated 3 mins before collagen challenge by turbidimetric method
[8] = Antiplatelet activity against washed rabbit platelet assessed as platelet activating factor-induced platelet aggregation at 50 ug/mL preincubated 3 mins before PAF challenge by turbidimetric method
[9] = Antiplatelet activity against washed rabbit platelet assessed as arachidonic acid-induced platelet aggregation at 20 ug/mL pre-incubated 3 mins before arachidonic acid challenge by turbidimetric method
[10] = Antiplatelet activity against washed rabbit platelet assessed as thrombin-induced platelet aggregation at 20 ug/mL pre-incubated 3 mins before thrombin challenge by turbidimetric method
[11] = Antiplatelet activity against washed rabbit platelet assessed as platelet activating factor-induced platelet aggregation at 20 ug/mL pre-incubated 3 mins before PAF challenge by turbidimetric method
[12] = Antiplatelet activity against washed rabbit platelet assessed as arachidonic acid-induced platelet aggregation at 5 ug/mL pre-incubated 3 mins before arachidonic acid challenge by turbidimetric method
[13] = Antiplatelet activity against washed rabbit platelet assessed as arachidonic acid-induced platelet aggregation at 10 ug/mL pre-incubated 3 mins before arachidonic acid challenge by turbidimetric method
[14] = Antiplatelet activity against washed rabbit platelet assessed as thrombin-induced platelet aggregation at 50 ug/mL preincubated 3 mins before thrombin challenge by turbidimetric method

CC(C)=CCc1c(O)ccc2ccc(=O)oc12 [OSTHENOL]
Aggregation % at 50 µg/mL [1]: 84.8%
Aggregation % at 100 µg/mL [2]: 13.7%
Aggregation % at 100 µg/mL [3]: 90.4%
Aggregation % at 100 µg/mL [4]: 23.2%
Aggregation % at 50 µg/mL [5]: 79.2%
Aggregation % at 100 µg/mL [6]: 89.8%
Aggregation % at 20 µg/mL [7]: 87%

COc1cc2nc3occc3c(OC)c2cc1OC [KOKUSAGININE]
Aggregation % at 50 µg/mL [1]: 0%
Aggregation % at 50 µg/mL [8]: 88.9%
Aggregation % at 100 µg/mL [2]: 15.2%
Aggregation % at 100 µg/mL [4]: 0%
Aggregation % at 50 µg/mL [5]: 80.6%
Aggregation % at 100 µg/mL [6]: 70.7%

CCCCCCCC/C=C\CCCCCCCC(=O)OC [METHYL OLEATE]
Aggregation % at 20 µg/mL [9]: 81.7%
Aggregation % at 20 µg/mL [10]: 86.7%
Aggregation % at 20 µg/mL [11]: 89.4%
Aggregation % at 20 µg/mL [7]: 84.4%

COc1ccc2ccc(=O)oc2c1CC=C(C)C [OSTHOLE]
Aggregation % at 50 µg/mL [1]: 52.6%
Aggregation % at 20 µg/mL [9]: 84.5%
Aggregation % at 50 µg/mL [8]: 88.6%
Aggregation % at 100 µg/mL [2]: 7.4%
Aggregation % at 100 µg/mL [3]: 86.6%
Aggregation % at 100 µg/mL [4]: 0%
Aggregation % at 50 µg/mL [5]: 7%
Aggregation % at 20 µg/mL [11]: 90%
Aggregation % at 100 µg/mL [6]: 0%
Aggregation % at 20 µg/mL [7]: 88.1%

COc1ccc2c(OC)c3c(nc2c1OC)O[C@@H](C(C)(C)O)[C@H]3O
Aggregation % at 100 µg/mL [2]: 79%
Aggregation % at 100 µg/mL [3]: 85.4%
Aggregation % at 100 µg/mL [4]: 78.3%
Aggregation % at 100 µg/mL [6]: 89.4%

COc1cc(C(=O)O)cc(OC)c1O [SYRINGIC ACID]
Aggregation % at 100 µg/mL [2]: 85.1%
Aggregation % at 100 µg/mL [3]: 88.3%
Aggregation % at 100 µg/mL [4]: 83.2%
Aggregation % at 100 µg/mL [6]: 89.6%

COc1cc(O)c2c(=O)c(OC)c(-c3ccc(OC)c(O)c3)oc2c1 [AYANIN]
Aggregation % at 50 µg/mL [1]: 38%
Aggregation % at 20 µg/mL [9]: 66.3%
Aggregation % at 100 µg/mL [2]: 43.1%
Aggregation % at 5 µg/mL [12]: 81.9%
Aggregation % at 100 µg/mL [3]: 85.4%
Aggregation % at 100 µg/mL [4]: 13.3%
Aggregation % at 50 µg/mL [5]: 66.1%
Aggregation % at 10 µg/mL [13]: 77.2%
Aggregation % at 100 µg/mL [6]: 88.3%
Aggregation % at 20 µg/mL [7]: 80.3%

COc1c2ccc(O)cc2nc2occc12 [CONFUSAMELINE]
Aggregation % at 100 µg/mL [2]: 11.4%
Aggregation % at 100 µg/mL [4]: 0%
Aggregation % at 100 µg/mL [6]: 78.6%

COc1ccc2c(OC)c3c(nc2c1OC)O[C@H](C(C)(C)O)C3
Aggregation % at 100 µg/mL [2]: 84.4%
Aggregation % at 100 µg/mL [3]: 86.5%
Aggregation % at 100 µg/mL [4]: 81.7%
Aggregation % at 100 µg/mL [6]: 89.8%

CC(=O)Oc1ccccc1C(=O)O [ASPIRIN]
Aggregation % at 50 µg/mL [1]: 7.8%
Aggregation % at 20 µg/mL [9]: 11.7%
aggregation at 50 µg/mL [14]: 94.2%
Aggregation % at 50 µg/mL [8]: 91.2%
Aggregation % at 50 µg/mL [5]: 88.4%

COCc1c(OC)c2ccc(OC)cc2[nH]c1=O [SEMECARPIFOLINE]
Aggregation % at 100 µg/mL [2]: 82.7%
Aggregation % at 100 µg/mL [3]: 85.8%
Aggregation % at 100 µg/mL [4]: 81%
Aggregation % at 100 µg/mL [6]: 88.8%
